Results from ChEMBL document CHEMBL4842316, “Structure-based bioisosterism design of thio-benzoxazepinones as novel necroptosis inhibitors” (Eur J Med Chem, 2021).
Active and inactive are the calls of the source. The rule behind the calls is not given here.

Experiments:
[1] = test system: HT-29; test: Anti-necroptotic activity in human HT-29 cells assessed as inhibition of hTNFalpha/Z-VAD-fmk (TSZ)-induced necroptosis by measuring increase in cell viability measured after 8 to 10 hrs by celltiter-glo luminescent cell viability assay; type: functional, cell-based
[2] = target: Receptor-interacting serine/threonine-protein kinase 3 (Homo sapiens) (UniProt Q9Y572); test: Inhibition of RIPK3 in Z-VAD-fmk (TSZ)-induced human HT-29 cells assessed as reduction in RIPK1-RIPK3 necrosome formation at 1 uM measured after 6 hrs by Western blot analysis; type: cell-based
[3] = target: T1, Receptor-interacting serine/threonine-protein kinase 1 (Homo sapiens) (UniProt Q13546); test: Inhibition of RIPK1 in Z-VAD-fmk (TSZ)-induced human HT-29 cells assessed as reduction in RIPK1-RIPK3 necrosome formation at 1 uM measured after 6 hrs by Western blot analysis; type: cell-based
T1 sequence (whole entry): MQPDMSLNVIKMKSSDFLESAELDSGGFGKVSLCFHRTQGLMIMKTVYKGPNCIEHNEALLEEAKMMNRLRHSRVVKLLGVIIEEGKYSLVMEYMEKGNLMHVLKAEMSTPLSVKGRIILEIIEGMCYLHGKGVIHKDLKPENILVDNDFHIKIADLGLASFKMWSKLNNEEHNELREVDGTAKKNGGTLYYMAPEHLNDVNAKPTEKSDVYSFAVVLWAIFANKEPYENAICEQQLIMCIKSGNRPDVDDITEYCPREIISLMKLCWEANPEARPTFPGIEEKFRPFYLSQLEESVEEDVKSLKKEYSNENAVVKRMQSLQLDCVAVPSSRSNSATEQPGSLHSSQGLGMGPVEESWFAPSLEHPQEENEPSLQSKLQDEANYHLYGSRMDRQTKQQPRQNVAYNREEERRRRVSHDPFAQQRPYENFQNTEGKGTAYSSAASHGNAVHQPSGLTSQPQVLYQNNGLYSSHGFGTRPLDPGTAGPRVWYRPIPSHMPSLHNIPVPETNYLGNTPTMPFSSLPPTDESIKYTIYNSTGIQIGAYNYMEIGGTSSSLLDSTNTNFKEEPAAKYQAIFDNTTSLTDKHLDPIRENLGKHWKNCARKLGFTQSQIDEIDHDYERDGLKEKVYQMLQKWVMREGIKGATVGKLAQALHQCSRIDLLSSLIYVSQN

[4] = test system: HT-29; test: Anti-necroptotic activity in human HT-29 cells assessed as inhibition of Z-VAD-fmk (TSZ)-induced necroptosis by measuring increase in cell viability measured after 8 to 10 hrs by celltiter-glo luminescent cell viability assay; type: functional, cell-based; settings: time 8-10 hrs
[5] = Cytotoxicity against human HT-29 cells assessed as reduction in cell viability measured after 8 to 10 hrs by celltiter-glo luminescent cell viability assay; type: cell-based; settings: time 8-10 hrs
[6] = target: T1, Receptor-interacting serine/threonine-protein kinase 1 (Homo sapiens); test: Inhibition of RIPK1 phosphorylation in Z-VAD-fmk (TSZ)-induced human HT-29 cells measured at 4 hrs by immunoblotting analysis; type: cell-based; settings: dose 0.001-1 µM
[7] = target: Receptor-interacting serine/threonine-protein kinase 3 (Homo sapiens) (UniProt Q9Y572); test: Inhibition of RIPK3 phosphorylation in Z-VAD-fmk (TSZ)-induced human HT-29 cells measured at 4 hrs by immunoblotting analysis; type: cell-based; settings: dose 0.001-1 µM
[8] = target: Receptor-interacting serine/threonine-protein kinase 3 (Homo sapiens) (UniProt Q9Y572); test: Inhibition of RIPK3 phosphorylation in Z-VAD-fmk (TSZ)-induced human HT-29 cells at 1 uM measured up to 4 hrs by immunoblotting analysis; type: cell-based; settings: time hrs <=4
[9] = target: T2, Mixed lineage kinase domain-like protein (Homo sapiens) (UniProt Q8NB16); test: Inhibition of MLKL phosphorylation in Z-VAD-fmk (TSZ)-induced human HT-29 cells at 1 uM measured up to 4 hrs by immunoblotting analysis; type: cell-based; settings: time hrs <=4
T2 sequence (whole entry): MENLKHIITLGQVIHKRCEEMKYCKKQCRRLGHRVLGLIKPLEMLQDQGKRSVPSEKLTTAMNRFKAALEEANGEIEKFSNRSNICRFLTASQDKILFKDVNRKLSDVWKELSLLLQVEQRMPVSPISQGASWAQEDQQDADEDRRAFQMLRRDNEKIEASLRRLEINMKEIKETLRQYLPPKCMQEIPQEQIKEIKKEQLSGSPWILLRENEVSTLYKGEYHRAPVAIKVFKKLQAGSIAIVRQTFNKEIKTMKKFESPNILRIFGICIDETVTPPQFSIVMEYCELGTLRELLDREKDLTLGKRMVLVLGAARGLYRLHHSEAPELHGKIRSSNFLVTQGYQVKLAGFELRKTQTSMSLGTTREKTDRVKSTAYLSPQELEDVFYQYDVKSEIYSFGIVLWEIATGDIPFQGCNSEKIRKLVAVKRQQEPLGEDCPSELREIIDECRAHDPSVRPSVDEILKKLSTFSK

[10] = target: T1, Receptor-interacting serine/threonine-protein kinase 1 (Homo sapiens); test: Inhibition of RIPK1 phosphorylation in Z-VAD-fmk (TSZ)-induced human HT-29 cells at 1 uM measured up to 4 hrs by immunoblotting analysis; type: cell-based; settings: time hrs <=4
[11] = target: T2, Mixed lineage kinase domain-like protein (Homo sapiens); test: Inhibition of MLKL phosphorylation in Z-VAD-fmk (TSZ)-induced human HT-29 cells measured at 4 hrs by immunoblotting analysis; type: cell-based; settings: dose 0.001-1 µM

Receptor-interacting serine/threonine-protein kinase 3 (Homo sapiens), sequence (Q9Y572 whole entry, looked up, the tested form may be a part): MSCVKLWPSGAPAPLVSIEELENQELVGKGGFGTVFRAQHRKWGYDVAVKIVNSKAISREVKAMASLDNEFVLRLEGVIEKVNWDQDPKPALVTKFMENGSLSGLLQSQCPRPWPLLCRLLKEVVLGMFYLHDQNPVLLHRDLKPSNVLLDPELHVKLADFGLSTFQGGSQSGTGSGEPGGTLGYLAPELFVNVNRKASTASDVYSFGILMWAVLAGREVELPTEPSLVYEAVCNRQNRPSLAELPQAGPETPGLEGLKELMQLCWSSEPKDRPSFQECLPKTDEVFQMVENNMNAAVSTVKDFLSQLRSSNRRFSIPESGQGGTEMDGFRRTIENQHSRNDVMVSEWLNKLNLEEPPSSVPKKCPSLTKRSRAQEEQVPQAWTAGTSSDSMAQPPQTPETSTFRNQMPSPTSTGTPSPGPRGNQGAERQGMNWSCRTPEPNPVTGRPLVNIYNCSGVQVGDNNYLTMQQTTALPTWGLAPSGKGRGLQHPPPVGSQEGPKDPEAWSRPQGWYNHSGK

| Compound | EC50 [1] | CC50 [5] | other results |
| --- | --- | --- | --- |
| CN1C(=S)[C@H](NC(=O)c2n[nH]c(Cc3ccccc3)n2)COc2ccccc21 | 0.0226 µM | > 50 µM | inhibition [2]: Active; inhibition [3]: Active; Activity [4]: Dose-Dependent Effect; inhibition [6]: Dose-Dependent Effect; inhibition [7]: Dose-Dependent Effect; inhibition [8]: Active; inhibition [9]: Active; inhibition [10]: Active; inhibition [11]: Dose-Dependent Effect |
| Cc1ccc2c(n1)OC[C@@H](NC(=O)c1n[nH]c(Cc3ccccc3)n1)C(=O)N2C | 6.5 µM | > 50 µM | – |
| CCN1C(=S)[C@@H](NC(=O)c2n[nH]c(Cc3ccccc3)n2)COc2ccccc21 | 1.51 µM | > 50 µM | – |
| CN1C(=S)[C@@H](NC(=O)c2n[nH]c(Cc3ccccc3)n2)COc2cccnc21 | 0.0137 µM | > 50 µM | – |
| CN1C(=O)[C@@H](NC(=O)c2nnc(Cc3ccccc3)[nH]2)COc2ccccc21 [GSK2982772] | 0.0036 µM | > 50 µM | – |
| Cc1cnc2c(c1)N(C)C(=O)[C@H](NC(=O)c1n[nH]c(Cc3ccccc3)n1)CO2 | > 10 µM | > 50 µM | – |
| Cc1cnc2c(c1)N(C)C(=S)[C@@H](NC(=O)c1n[nH]c(Cc3ccccc3)n1)CO2 | 0.144 µM | > 50 µM | – |
| [2H]C([2H])([2H])N1C(=S)[C@@H](NC(=O)c2n[nH]c(Cc3ccccc3)n2)COc2ccccc21 | 0.0074 µM | > 50 µM | – |
| Cc1cnc2c(c1)N(C)C(=O)[C@@H](NC(=O)c1n[nH]c(Cc3ccccc3)n1)CO2 | 0.243 µM | > 50 µM | – |
| Cc1cnc2c(c1)N(C)C(=S)[C@H](NC(=O)c1n[nH]c(Cc3ccccc3)n1)CO2 | 3.4 µM | > 50 µM | – |
| O=C(N[C@H]1COc2ccccc2NC1=S)c1n[nH]c(Cc2ccccc2)n1 | 0.736 µM | > 50 µM | – |
| CN1C(=O)[C@H](NC(=O)c2n[nH]c(Cc3ccccc3)n2)COc2cccnc21 | 0.81 µM | > 50 µM | – |
| CN1C(=S)[C@@H](NC(=O)c2n[nH]c(Cc3ccccc3)n2)COc2ccccc21 | 0.0028 µM | > 50 µM | inhibition [2]: Active; inhibition [3]: Active; Activity [4]: Dose-Dependent Effect; inhibition [6]: Dose-Dependent Effect; inhibition [7]: Dose-Dependent Effect; inhibition [8]: Active; inhibition [9]: Active; inhibition [10]: Active; inhibition [11]: Dose-Dependent Effect |
| CN1C(=O)[C@@H](NC(=O)c2n[nH]c(Cc3ccccc3)n2)COc2ncccc21 | > 10 µM | > 50 µM | – |
| CN1C(=S)[C@@H](NC(=O)c2n[nH]c(Cc3ccccc3)n2)COc2ncccc21 | > 10 µM | > 50 µM | – |
| CN1C(=S)[C@H](NC(=O)c2n[nH]c(Cc3ccccc3)n2)COc2cccnc21 | 0.0186 µM | > 50 µM | – |
| O=C(N[C@@H]1COc2ccccc2NC1=S)c1n[nH]c(Cc2ccccc2)n1 | 8.84 µM | > 50 µM | – |
| CN1C(=O)[C@H](NC(=O)c2n[nH]c(Cc3ccccc3)n2)COc2ncccc21 | > 10 µM | > 50 µM | – |
| Cc1ccc2c(n1)OC[C@H](NC(=O)c1n[nH]c(Cc3ccccc3)n1)C(=S)N2C | 0.122 µM | > 50 µM | – |
| CN1C(=O)[C@@H](NC(=O)c2nnc(Cc3ccccc3)[nH]2)COc2cccnc21 [ECLITASERTIB] | 0.0154 µM | > 50 µM | – |
| Cc1ccc2c(n1)OC[C@H](NC(=O)c1n[nH]c(Cc3ccccc3)n1)C(=O)N2C | 0.363 µM | > 50 µM | – |
| CN1C(=S)[C@H](NC(=O)c2n[nH]c(Cc3ccccc3)n2)COc2ncccc21 | > 10 µM | > 50 µM | – |
| CCN1C(=S)[C@H](NC(=O)c2n[nH]c(Cc3ccccc3)n2)COc2ccccc21 | 6.68 µM | > 50 µM | – |
| CN1C(=O)[C@H](NC(=O)c2nnc(Cc3ccccc3)[nH]2)COc2ccccc21 | 0.279 µM | > 50 µM | – |
| Cc1ccc2c(n1)OC[C@@H](NC(=O)c1n[nH]c(Cc3ccccc3)n1)C(=S)N2C | 2.02 µM | > 50 µM | – |
| [2H]C([2H])([2H])N1C(=S)[C@H](NC(=O)c2n[nH]c(Cc3ccccc3)n2)COc2ccccc21 | 0.0763 µM | > 50 µM | – |
